From patent publication US20240335406A1, “COMPOUNDED COMPOSITIONS AND METHODS FOR TREATING PAIN” (CMPD Licensing, LLC, priority 2016, published 2024)
Counter-ions that a name gives are not always drawn.

Experiment: Potency test of the compounded topical solution of Example 1 (HPLC with UV/photodiode array detector)
Assay type: physicochemical
Settings: for Measured: concentration of analyte in compounded topical solution of Example 1; for Potency: measured vs reported concentration, compounded topical solution of Example 1
Method: Diclofenac sodium topical solution, 1.5% (w/w), includes approximately 16.05 mg diclofenac sodium per mL. Accordingly, approximately 0.9167 mL of diclofenac sodium topical solution, 1.5% (w/w), was measured for every mL of compounded topical solution. […] The measured ingredients where combined in a beaker. The beaker was placed on a magnetic stirring plate and a stir bar was placed in the beaker and rotated at a speed to create a small vortex for 5 minutes. The stirred solution was then placed in containers.

Compound: O=C(O)Cc1ccccc1Nc1c(Cl)cccc1Cl [Diclofenac Sodium]
- Measured: 1.51%
- Potency: 103%

Compound: CCN(CC)CC(=O)Nc1c(C)cccc1C [Lidocaine HCl, Lidocaine Hydrochloride]
- Measured: 0.336%
- Potency: 101%
